Converted amounts (≈) assume the structure as drawn.

A short description of the test: Cytotoxicity against mouse 9PS cells. It is filed as functional. Conditions: read-out: ED50 (the source's name).
`COc1c(/C=C/C(C)(C)O)c2c(c3oc(C)cc(=O)c13)C=CC(C)(C)O2`: the EC50 is 0.3 µg/mL (≈ 0.842 µM).

As for `Cc1cc(=O)c2c(O)c3c(c(C(O)C(O)C(C)(C)O)c2o1)OC(C)(C)C=C3` (stereo not drawn), the EC50 is 0.5 µg/mL (≈ 1.33 µM).

`Cc1cc(=O)c2c(O)c3c(c(CC(O)C(C)(C)O)c2o1)OC(C)(C)C=C3` (stereo not drawn) [SPATHELIABISCHROMEN]: the EC50 was determined as 3 µg/mL (≈ 8.32 µM).
